Test results from paper PMC3389297 (Bioorganic & medicinal chemistry, 2012).
“Also recorded” adds a separate entry of the source.

Assays:
Format in all cases: biochemical
[1] = target: PTP-β (Homo sapiens, UniProt P23467); test: Colorimetric PTP-β assay using p-NPP as substrate; settings: 5 µM compound; 1 mM p-NPP as substrate
[2] = target: T1, Cdc25a (Homo sapiens, UniProt P30304); test: OMFP phosphatase assay, Cdc25a; settings: for Mode of inhibition of Cdc25a: Michaelis-Menten kinetics, varying inhibitor concentrations; for Reversibility of inhibition of Cdc25a: dilution method: pre-incubation at 4 times IC50, 10-fold dilution
T1 sequence (P30304 376-482 limits assumed): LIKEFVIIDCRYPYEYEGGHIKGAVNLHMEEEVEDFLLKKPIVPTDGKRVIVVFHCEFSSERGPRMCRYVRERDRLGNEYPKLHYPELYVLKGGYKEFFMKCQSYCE

[3] = target: T2, Cdc25c (Homo sapiens, UniProt P30307); test: OMFP phosphatase assay, Cdc25c
T2 sequence (P30307 321-428 limits assumed): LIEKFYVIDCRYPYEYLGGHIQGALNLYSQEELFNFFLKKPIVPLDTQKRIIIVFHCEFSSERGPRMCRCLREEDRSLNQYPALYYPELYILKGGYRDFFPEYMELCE

[4] = target: T3, Cdc25b (Homo sapiens, UniProt P30305); test: OMFP phosphatase assay, Cdc25b; settings: for Mode of inhibition of Cdc25b: Michaelis-Menten kinetics, varying inhibitor concentrations; for Reversibility of inhibition of Cdc25b: dilution method: pre-incubation at 4 times IC50, 10-fold dilution
T3 sequence (P30305 431-538 limits assumed): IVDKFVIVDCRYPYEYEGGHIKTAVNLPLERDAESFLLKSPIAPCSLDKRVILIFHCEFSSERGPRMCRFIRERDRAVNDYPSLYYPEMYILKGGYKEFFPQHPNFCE

PTP-β, sequence (P23467 1703-1963 limits assumed): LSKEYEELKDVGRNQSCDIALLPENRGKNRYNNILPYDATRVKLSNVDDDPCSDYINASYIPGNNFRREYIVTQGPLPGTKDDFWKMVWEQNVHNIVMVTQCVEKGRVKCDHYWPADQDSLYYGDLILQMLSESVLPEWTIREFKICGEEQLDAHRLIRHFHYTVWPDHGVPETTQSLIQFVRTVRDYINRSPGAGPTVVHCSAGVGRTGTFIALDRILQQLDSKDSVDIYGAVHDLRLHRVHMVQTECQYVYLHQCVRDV

SMILES | Inhibition of PTP-β [1] | Mode of inhibition of Cdc25a ([2]; OMFP) | Potency relative to 13778 for Cdc25a (fold lower) ([2]; OMFP) | Reversibility of inhibition of Cdc25a [2] | Effect on activity of Cdc25c ([3]; at the concentrations tested) | Mode of inhibition of Cdc25b ([4]; OMFP) | Potency relative to 13778 for Cdc25b (fold lower) ([4]; OMFP) | Reversibility of inhibition of Cdc25b [4] | Effect on activity of Cdc25c ([3]; 10 µM compound)
[O]=[Sb]([OH])([OH])[c]1ccccc1 [Compound 13744] | does not show any inhibitory effect; also recorded: No inhibition | – | – | – | – | – | – | – | –
O=C(O)CCc1ccc[c]([Sb](=[O])([OH])[OH])c1 [Compound P6949, 3-(3-stibonophenyl)propanoic acid] | almost completely inhibiting phosphatase activity | partial mixed-type mode of inhibition | ~ 30 fold | reversible | not affected | partial mixed-type mode of inhibition | ~ 10 fold | reversible | –
O=C(O)/C=C/c1ccc[c]([Sb](=[O])([OH])[OH])c1 [Compound 13778, (E)-3-(3-stibonophenyl)acrylic acid] | almost completely inhibiting phosphatase activity | partial mixed-type mode of inhibition | – | reversible | – | partial mixed-type mode of inhibition | – | reversible | not substantially affected
